Reference: ChEMBL document CHEMBL5625252, “Synthesis of peptidomimetics as antibiotic adjuvants for combination with aztreonam to combat MDR Pseudomonas aeruginosa” (Eur J Med Chem, 2023)
≈ marks a conversion by molar mass, not a printed value. Calls of active or inactive are those of the source. No cut-off for these calls is given here.

Legend:
[1] = test system: Pseudomonas aeruginosa; test: Antibacterial activity against Pseudomonas aeruginosa 16-11 in CAMH broth medium supplemented with 20.99 to 21.09 mM Mg2+ by checkerboard assay; format: functional
[2] = test system: Escherichia coli; test: Antibacterial activity against ESBLs (-) Escherichia coli ATCC 25922 assessed as inhibition of bacterial growth incubated for 18 hrs by agar dilution method; format: functional
[3] = test system: Pseudomonas aeruginosa; test: Antibacterial activity against Pseudomonas aeruginosa 23-Y539 assessed as inhibition of bacterial growth incubated for 18 hrs by agar dilution method; format: functional
[4] = test system: Pseudomonas aeruginosa; test: Antibacterial activity against Pseudomonas aeruginosa 13-35 assessed as inhibition of bacterial growth incubated for 18 hrs by agar dilution method; format: functional
[5] = test system: Pseudomonas aeruginosa; test: Antibacterial activity against Pseudomonas aeruginosa 16-2 at 16 ug/ml measured upto 24 hrs by time-kill assay; format: functional, organism-based; settings: dose 16.0 µg/ml
[6] = test system: Pseudomonas aeruginosa; test: Antibacterial activity against BL (+) Pseudomonas aeruginosa ATCC 27853 assessed as inhibition of bacterial growth incubated for 18 hrs by agar dilution method; format: functional
[7] = test system: Pseudomonas aeruginosa; test: Antibacterial activity against Pseudomonas aeruginosa 13-17 assessed as inhibition of bacterial growth incubated for 18 hrs by agar dilution method; format: functional
[8] = test system: Escherichia coli; test: Antibacterial activity against mcr-1 (+) Escherichia coli 08-85 assessed as inhibition of bacterial growth incubated for 18 hrs by agar dilution method; format: functional
[9] = test system: Pseudomonas aeruginosa; test: Antibacterial activity against Pseudomonas aeruginosa 13-3 assessed as inhibition of bacterial growth incubated for 18 hrs by agar dilution method; format: functional
[10] = test system: Klebsiella pneumoniae; test: Antibacterial activity against ESBLs (+) Klebsiella pneumoniae 16-14 assessed as inhibition of bacterial growth incubated for 18 hrs by agar dilution method; format: functional
[11] = test system: Escherichia coli; test: Antibacterial activity against NDM-1 (+) Escherichia coli CDC 1001728 assessed as inhibition of bacterial growth incubated for 18 hrs by agar dilution method; format: functional
[12] = test system: Klebsiella pneumoniae; test: Antibacterial activity against NDM-1 (+) Klebsiella pneumoniae 09-20 assessed as inhibition of bacterial growth incubated for 18 hrs by agar dilution method; format: functional
[13] = test system: Pseudomonas aeruginosa; test: Antibacterial activity against Pseudomonas aeruginosa 13-35 in CAMH broth medium supplemented with 20.99 to 21.09 mM Mg2+ by checkerboard assay; format: functional
[14] = test system: Pseudomonas aeruginosa; test: Antibacterial activity against Pseudomonas aeruginosa PAO1 in CAMH broth medium supplemented with 0.41 to 0.51 mM Mg2+ by checkerboard assay; format: functional
[15] = test system: Pseudomonas aeruginosa; test: Antibacterial activity against Pseudomonas aeruginosa 12-1 in CAMH broth medium supplemented with 0.41 to 0.51 mM Mg2+ by checkerboard assay; format: functional
[16] = test system: Pseudomonas aeruginosa; test: Antibacterial activity against Pseudomonas aeruginosa PAO1 at 2 ug/ml measured upto 24 hrs by time-kill assay; format: functional, organism-based; settings: dose 2.0 µg/ml
[17] = test system: Pseudomonas aeruginosa; test: Antibacterial activity against Pseudomonas aeruginosa 13-35 in CAMH broth medium supplemented with 0.41 to 0.51 mM Mg2+ by checkerboard assay; format: functional
[18] = test system: Klebsiella pneumoniae; test: Antibacterial activity against NDM-1 (+) Klebsiella pneumoniae 2146 assessed as inhibition of bacterial growth incubated for 18 hrs by agar dilution method; format: functional
[19] = test system: Pseudomonas aeruginosa; test: Antibacterial activity against Pseudomonas aeruginosa 23-Y122 assessed as inhibition of bacterial growth incubated for 18 hrs by agar dilution method; format: functional
[20] = test system: Pseudomonas aeruginosa; test: Antibacterial activity against Pseudomonas aeruginosa PAO1 in CAMH broth medium supplemented with 20.99 to 21.09 mM Mg2+ by checkerboard assay; format: functional
[21] = test system: Pseudomonas aeruginosa; test: Antibacterial activity against Pseudomonas aeruginosa 19-46 assessed as inhibition of bacterial growth incubated for 18 hrs by agar dilution method; format: functional
[22] = test system: Pseudomonas aeruginosa; test: Antibacterial activity against Pseudomonas aeruginosa 21-2 assessed as inhibition of bacterial growth incubated for 18 hrs by agar dilution method; format: functional
[23] = test system: Klebsiella pneumoniae; test: Antibacterial activity against ESBLs (+) Klebsiella pneumoniae ATCC 700603 assessed as inhibition of bacterial growth incubated for 18 hrs by agar dilution method; format: functional
[24] = test system: Pseudomonas aeruginosa; test: Antibacterial activity against Pseudomonas aeruginosa 12-1 in CAMH broth medium supplemented with 20.99 to 21.09 mM Mg2+ by checkerboard assay; format: functional
[25] = test system: Pseudomonas aeruginosa; test: Antibacterial activity against Pseudomonas aeruginosa PAO1 assessed as inhibition of bacterial growth incubated for 18 hrs by agar dilution method; format: functional
[26] = test system: Pseudomonas aeruginosa; test: Antibacterial activity against Pseudomonas aeruginosa 16-2 infected in Galleria mellonella assessed as larvae survival rate at 50 mg/kg after 96 hrs of innoculation; format: functional
[27] = test system: Pseudomonas aeruginosa; test: Antibacterial activity against Pseudomonas aeruginosa 21-7 assessed as inhibition of bacterial growth incubated for 18 hrs by agar dilution method; format: functional
[28] = test system: Pseudomonas aeruginosa; test: Antibacterial activity against Pseudomonas aeruginosa 23-Y511 assessed as inhibition of bacterial growth incubated for 18 hrs by agar dilution method; format: functional
[29] = test system: Pseudomonas aeruginosa; test: Antibacterial activity against Pseudomonas aeruginosa 23-Y372 assessed as inhibition of bacterial growth incubated for 18 hrs by agar dilution method; format: functional
[30] = test system: Pseudomonas aeruginosa; test: Antibacterial activity against Pseudomonas aeruginosa 12-1 assessed as inhibition of bacterial growth incubated for 18 hrs by agar dilution method; format: functional
[31] = test system: Pseudomonas aeruginosa; test: Antibacterial activity against Pseudomonas aeruginosa 16-11 assessed as inhibition of bacterial growth incubated for 18 hrs by agar dilution method; format: functional
[32] = test system: Pseudomonas aeruginosa; test: Antibacterial activity against Pseudomonas aeruginosa PAO1 infected in Galleria mellonella assessed as increase in larvae survival at 25 mg/kg measured every 12 hrs; format: functional, organism-based
[33] = test system: Pseudomonas aeruginosa; test: Antibacterial activity against Pseudomonas aeruginosa 23-Y364 assessed as inhibition of bacterial growth incubated for 18 hrs by agar dilution method; format: functional
[34] = test system: Escherichia coli; test: Antibacterial activity against ESBLs (+) Escherichia coli 16-1 assessed as inhibition of bacterial growth incubated for 18 hrs by agar dilution method; format: functional
[35] = test system: Pseudomonas aeruginosa; test: Antibacterial activity against Pseudomonas aeruginosa 19-55 assessed as inhibition of bacterial growth incubated for 18 hrs by agar dilution method; format: functional
[36] = test system: Pseudomonas aeruginosa; test: Antibacterial activity against Pseudomonas aeruginosa 16-11 in CAMH broth medium supplemented with 0.41 to 0.51 mM Mg2+ by checkerboard assay; format: functional

## C[C@H]1[C@H](NC(=O)/C(=N\OC(C)(C)C(=O)O)c2csc(N)n2)C(=O)N1S(=O)(=O)O [AZTREONAM]
[1]
  MIC: 8 µg/mL
[2]
  MIC: 0.06 µg/mL (≈ 0.138 µM)
[3]
  MIC: 64 µg/mL (≈ 147 µM)
[4]
  MIC: 32 µg/mL (≈ 73.5 µM)
[5]
  Activity: inactive
[6]
  MIC: 4 µg/mL (≈ 9.19 µM)
[7]
  MIC: 64 µg/mL (≈ 147 µM)
[8]
  MIC: 4 µg/mL (≈ 9.19 µM)
[9]
  MIC: 64 µg/mL (≈ 147 µM)
[10]
  MIC: 4 µg/mL (≈ 9.19 µM)
[11]
  MIC: 4 µg/mL (≈ 9.19 µM)
[12]
  MIC: 0.25 µg/mL (≈ 0.574 µM)
[13]
  MIC: 32 µg/mL
[14]
  MIC: 8 µg/mL
[15]
  MIC: 64 µg/mL
[16]
  Activity: inactive
[17]
  MIC: 32 µg/mL
[18]
  MIC: > 128 µg/mL
[19]
  MIC: 32 µg/mL (≈ 73.5 µM)
[20]
  MIC: 8 µg/mL
[21]
  MIC: 128 µg/mL (≈ 294 µM)
[22]
  MIC: 64 µg/mL (≈ 147 µM)
[23]
  MIC: 32 µg/mL (≈ 73.5 µM)
[24]
  MIC: 64 µg/mL
[25]
  MIC: 8 µg/mL (≈ 18.4 µM)
[26]
  Activity: 30%
[27]
  MIC: > 256 µg/mL
[28]
  MIC: 32 µg/mL (≈ 73.5 µM)
[29]
  MIC: 32 µg/mL (≈ 73.5 µM)
[30]
  MIC: 64 µg/mL (≈ 147 µM)
[31]
  MIC: 8 µg/mL (≈ 18.4 µM)
[32]
  Activity: inactive
[33]
  MIC: > 256 µg/mL
[34]
  MIC: ≤ 0.03 µg/mL
[35]
  MIC: 128 µg/mL (≈ 294 µM)
[36]
  MIC: 8 µg/mL
